Reference: article PMC5923171, “Novel Zinc-Attenuating Compounds as Potent Broad-Spectrum Antifungal Agents with In Vitro and In Vivo Efficacy” (Antimicrobial Agents and Chemotherapy, 2018)

Key:
[1] = test system: A. fumigatus AF721 (ΔzrfA ΔzrfB ΔzrfC); experiment: Growth capacity in sRPMI medium, 24-well plates; assay type: cell-based, Aspergillus fumigatus
[2] = test system: invasive pulmonary aspergillosis; parameters: method as in PMID 26438863; details: after 7 days, compared to vehicle treatment; cited from earlier work
A. fumigatus = test system: A. fumigatus; parameters: method as in PMID 27401578; details: cited from earlier work

Row | SMILES | growth capacity in the presence of 50 μM zinc (in words) [1] | survival [2] | survival times (A. fumigatus; in combination with caspofungin, compared to either drug alone, murine models of invasive aspergillosis) | survival and fungal burden (A. fumigatus; monotherapy)
1 | Cc1cc(O)n(-c2cc(N3CC[C@H](Oc4cnccc4C#N)C3)ncn2)n1 [ZAC989, 3-[(3S)-1-[6-(5-hydroxy-3-methyl-pyrazol-1-yl)pyrimidin-4-yl]pyrrolidin-3-yl]oxy-pyridine-4-carbonitrile] | noticeably inhibited the growth capacity of AF721 | – | – | –
2 | c1ccc(CN(CCN(Cc2ccccn2)Cc2ccccn2)Cc2ccccn2)nc1 [TPEN, N,N,N’,N’-tetrakis(2-pyridylmethyl)-ethylenediamine] | – | significantly increase survival | significantly increased survival times | significant improvements in survival with concomitant reduction in fungal burden
